From patent publication US20130243720A1, “Iron(II)-Containing A Treatments for Hyperphosphatemia” (priority 2006, published 2013)

System: Sprague Dawley (SD) rats
Assay: Effects of compounds for reducing urinary phosphate levels in rats fed treatment diet
Format: in vivo, rat
Conditions: male SD rats; for Urinary Phosphate: urine collected on days 5 and 6
Experimental: House male Sprague Dawley (SD) rats were used for the experiments. The rats were placed singly in wire-bottom cages, fed with Purina 5002 diet, and allowed to acclimate for at least 5 days prior to experimental use.
To establish baseline phosphorus excretion, the rats were placed in metabolic cages for 48 hours. Their urine was collected and its phosphorus content analyzed with a Hitachi analyzer to determine phosphorus excretion in mg/day. Any rats with outlying values were excluded; and the remainder of the rats was distributed into groups.
Purina 5002 was used as the standard diet. The compound or compound mixture being tested was mixed with Purina 5002 to result in a final concentration 0.5% (or as indicated in the table) by weight. Cellulose at 0.5% by weight was used as a negative control. For each rat, 200 g of diet was prepared.
Each rat was weighed and placed on the standard diet. After 4 days the standard diet was replaced with the treatment diet (or control diet for the control group). On days 5 and 6, urine samples from the rats at 24 hours (+/−30 minutes) were collected and analyzed. The test rats were again weighed, and any weight loss or gain was calculated. Any remaining food was also weighed to calculate the amount of food consumed per day. A change in phosphorus excretion relative to baseline and cellulose negative control was calculated using Excel program.

[1] = 0.5% of diet, urinary phosphorus excretion relative to baseline and cellulose negative control
[2] = compound mixed with Purina 5002 diet at 0.5% by weight

Row | Molecule | % Control [1] | Urinary Phosphate [2] | % Control (0.30% of diet, relative to baseline and cellulose negative control) | Urinary Phosphate (0.30% of diet) | % Control (0.5% of diet, urinary phosphorus excretion relative to baseline and cellulose negative control, listed as Iron(II) Acetate) | % Control (0.7% of diet, relative to baseline and cellulose negative control) | Urinary Phosphate (0.7% of diet) | Urinary Phosphate (compound mixed with Purina 5002 diet at 0.5% by weight, listed as Iron(II) Acetate)
1 | CC(=O)/C=C(/C)O.CC(=O)/C=C(/C)O.[Fe] [Fe(II) acetylacetonato] | 55.6% | 10.4 mg/day |  |  |  |  |  | 
2 | CC(=O)[O-].CC(=O)[O-].[Fe+2] [Iron(II) acetate, iron(II) acetate] | 65.9% | 12.8 mg/day | 67.4% | 12.1 mg/day | 69.1% | 44.4% | 8.0 mg/day | 12.4 mg/day
3 | O=C([O-])C(=O)[O-].[Fe+2] [Iron(II) oxalate, iron(II) oxalate] | 89.0% | 14.8 mg/day |  |  |  |  |  | 
4 | [Fe+2].[O-2] [Iron(II)oxide, iron(II) oxide] | 104.3% | 20.2 mg/day |  |  |  |  |  | 
5 | (+)-iron(II) L-ascorbate | 78.6% | 13.4 mg/day |  |  |  |  |  | 
